In series [1] the test system is Leishmania donovani. Briefly: GSK_TCAKS: pIC50 Leishmania donovani Imaging: Infected Macrophages. Assay plates (384-well) were prepared by adding 250nL of compound to each well. For single shot assay, the final compound concentration was 5 uM. […] Automated image analysis was performed with a script developed on Acapella High Content Imaging and Analysis Software (PerkinElmer). Output: Percent of infected macrophage cells were reported for each well. The format is functional, organism-based, Homo sapiens. Particulars: THP-1.

The target of series [2] is Sterol 14-alpha demethylase (Trypanosoma cruzi (strain CL Brener), UniProt Q7Z1V1). Briefly: GSK_TCAKS: pIC50 CYP51 from Trypanosoma cruzi. The format is functional.
Sequence of Sterol 14-alpha demethylase (Q7Z1V1 whole entry): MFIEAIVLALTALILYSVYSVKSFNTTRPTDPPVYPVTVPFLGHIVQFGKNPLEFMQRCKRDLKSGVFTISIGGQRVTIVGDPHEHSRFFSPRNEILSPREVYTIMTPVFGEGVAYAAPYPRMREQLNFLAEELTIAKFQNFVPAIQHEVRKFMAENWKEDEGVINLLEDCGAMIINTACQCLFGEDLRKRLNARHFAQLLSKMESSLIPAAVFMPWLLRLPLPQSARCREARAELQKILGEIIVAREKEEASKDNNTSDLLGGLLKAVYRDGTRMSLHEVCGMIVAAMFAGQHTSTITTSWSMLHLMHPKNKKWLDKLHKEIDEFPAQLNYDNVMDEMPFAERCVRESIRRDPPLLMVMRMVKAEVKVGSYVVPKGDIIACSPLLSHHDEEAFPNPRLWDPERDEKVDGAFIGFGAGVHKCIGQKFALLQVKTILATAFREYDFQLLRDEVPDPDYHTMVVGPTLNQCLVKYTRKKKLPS
Series [3] relates to Trypanosoma cruzi. Briefly: (§1) GSK_TCAKS: pIC50 Trypanosoma cruzi Imaging: Infected Cells. […] Cells were then washed once with PBS before infection. T. cruzi trypomastigotes, collected at days 5 to 8 after infection from LLC-MK2 parasite infected cultures, were allowed to swim out for 4h at 37C from a centrifuged pellet (2,500 rpm/10 min/room temperature). Trypomastigotes were then collected and counted in a CASY Cell Counter. Trypomastigotes, in supplemented DMEM, were added to H9c2 cultures in a multiplicity of infection of 1 and incubated for 18 h. Cells were washed once with PBS before incubation of the infected H9c2 monolayer with trypsin (Life-Technologies) to detach cells from the flask. Cells were counted in a CASY Cell Counter using a 150 um capillary and their density set at 5 * 10^4 cells per mL in supplemented assay DMEM. Infected H9c2 were dispensed into 384-well poly-lysine coated assay plates at 50uL per well using a Multidrop Combi dispenser. After seeding them, the plates were incubated at 37C, 5% CO2 for 72h. Cultures were then fixed and stained by addition of 50 uL of a solution containing 8% formaldehyde and 4 uM DRAQ5 DNA dye (BioStatus, UK) per well. […] Five images were collected per well for reliable statistical analysis. Automated image analysis was performed with a script developed on Acapella High Content Imaging and Analysis Software (PerkinElmer). Output: percentage of infected cells per well as a second infection marker. The format is functional, organism-based, Rattus norvegicus. Particulars: H9c2, 4 h.

Series [4] concerns Leishmania donovani. Briefly: GSK_TCAKS: pIC50 Leishmania donovani viability assay using fluorescence intensity. Assay plates (1536-well) were prepared by adding 30nL per well of compound. For single shot assay, the final compound concentration was 5uM. […] Briefly, eGFP LdBOB axenic amastigotes were harvested, fixed and counted in a CASY cell counter (Roche-Applied Science). A final concentration of 1.5 * 10^5 cells per well were prepared in amastigote media containing 500 U/mL penicillin/streptomycin (Invitrogen) and 6uL was dispensed to each experimental well using a Multidrop Combi dispenser (Thermo Scientific). 6uL of assay media was dispensed to control columns used as reference for 100% compound response. Following incubation for 72 h at 37C, 5% CO2, 2 uL of resazurin was added to each well at a final concentration of 0.5 mM in phosphate buffered saline (PBS) with IGEPAL (Sigma-Aldrich), 0.05% (v/v). The format is functional, organism-based.

The nature of series [5]: GSK_TCAKS: pIC50 HepG2 human cell line viability assay using luminiscence. […] Seeding density was checked to ensure that new mono-layers were not more than 50% confluent at the time of harvesting. Cell suspension was added to 500 mL of the same medium at a final density of 1.2 * 10^5 cells/mL. This cell suspension was dispensed (25 uL, 3000 cells per well) into 384-well clear-bottom plates using a Multidrop Combi dispenser. Prior to addition of the cell suspension, the screening compounds (250 nL) were pre-dispensed into the plates with an Echo liquid handler. Plates were incubated for 48 h at 37C, 5% CO2. After incubation, plates equilibrated at room temperature for 30 min before proceeding to develop the luminescent signal. The signal developer, CellTiter-Glo Reagent, was allowed to equilibrate at room temperature for 30 min and added to the plates (25uL per well) using a Multidrop Combi dispenser. Plates were left for 10 min at room temperature for stabilization and then read using a ViewLux. The format is toxicity, cell-based. (In general: Cellular ATP, detected with luciferase, serves as a proxy for viable cell number.)

The test system of series [6] is Trypanosoma brucei brucei. The series is described as follows: GSK_TCAKS: pIC50 Trypanosoma brucei viability assay using luminiscence. Assay plates (1536-well) were prepared. T. brucei cultures were harvested and counted in a CASY cell counter. A parasite suspension was prepared at a final concentration of 5 * 10^4 cells/mL in complete HMI9 medium and 6uL was dispensed to all wells containing compounds using a Multidrop Combi dispenser. 6uL of HMI9 media with 0.4% DMSO were dispensed to control columns. Plates were incubated for 24 h at 37C, 5% CO2 then tempered for 10 min at room temperature. ATP content was quantified by adding 4 uL of CellTiter-Glo Reagent (Promega) according to the manufacturer's instructions. Luminescence was measured using a ViewLux. The format is functional, organism-based. As to conditions: Lister 427, CASY.

The test system of series [7] is Trypanosoma cruzi. Described as §1, with “H2C9” for “Trypanosoma cruzi”, “H9c2 Host Cardiomyocytes.” for “Infected Cells.”, “Number” for “percentage”, “H9c2 Host Cardiomyocytes nuclei to determine drug-related cytotoxicity.” for “infected cells per well as a second infection marker.”. The format is functional, organism-based, Rattus norvegicus. As to conditions: H9c2, 4 h.

Series [8] deals with Leishmania donovani. The series is described as follows: GSK_TCAKS: pIC50 Leishmania donovani Imaging: THP-1 Host Macrophages. Assay plates (384-well) were prepared by adding 250nL of compound to each well. For single shot assay, the final compound concentration was 5 uM. […] Automated image analysis was performed with a script developed on Acapella High Content Imaging and Analysis Software (PerkinElmer). Output: THP-1 cell count were reported for each well. The format is functional, organism-based, Homo sapiens.

Series [9] concerns Trypanosoma cruzi. Briefly: GSK_TCAKS: pIC50 Trypanosoma cruzi viability assay using beta-GAL activity. This assay was run at single shot at 5uM compound concentration per well. The biological reagents consisted of NIH-3T3 host cells and trypomastigotes parasitic cells; both cell types were set to a 3.3 * 10^5 cells/mL dilution in assay DMEM by means of a CASY cell counter device using a 60um capillary. 6 uL of the mixture were dispensed per well (about 1 * 10^3 host-cells and 1 * 10^3 parasites) with a Multidrop Combi dispenser. […] In all wells, the percentage of DMSO never exceeded 0.5%. Plates incubated for four days at 37C, 5% CO2. The substrate used for the assay fluorescence intensity (FLINT) readout was resorufin-beta-D-galactopiranoside (Sigma-Aldrich) at 5uM per well. It was diluted in PBS supplemented with the soft detergent Igepal (Fluka). Particulars: Tulahuen, NIH3T3. The format is functional, organism-based, Mus musculus.

Series [10] has as its system Trypanosoma brucei brucei. Briefly: GSK_TCAKS: pIC50 Trypanosoma brucei viability assay using fluorescence intensity. Assay plates (1536-well) were prepared by dispensing 25nL of compound solution per well using an Echo acoustic dispenser (Labcyte). The format is functional, organism-based. Particulars: Lister 427, 2 h.
The test system of series [11] is Leishmania donovani. Briefly: GSK_TCAKS: pIC50 Leishmania donovani Imaging: Amastigotes/Macrophages. Assay plates (384-well) were prepared by adding 250nL of compound to each well. For single shot assay, the final compound concentration was 5 uM. […] Automated image analysis was performed with a script developed on Acapella High Content Imaging and Analysis Software (PerkinElmer). Output: Average number of amastigotes per macrophage cell were reported for each well. The format is functional, organism-based, Homo sapiens. As to conditions: THP-1.

Series [12] concerns Trypanosoma cruzi. Briefly: GSK_TCAKS: pIC50 Trypanosoma cruzi Imaging: Amastigotes/Cell. […] Cells were then washed once with PBS before infection. T. cruzi trypomastigotes, collected at days 5 to 8 after infection from LLC-MK2 parasite infected cultures, were allowed to swim out for 4h at 37C from a centrifuged pellet (2,500 rpm/10 min/room temperature). Trypomastigotes were then collected and counted in a CASY Cell Counter. Trypomastigotes, in supplemented DMEM, were added to H9c2 cultures in a multiplicity of infection of 1 and incubated for 18 h. Cells were washed once with PBS before incubation of the infected H9c2 monolayer with trypsin (Life-Technologies) to detach cells from the flask. Cells were counted in a CASY Cell Counter using a 150 um capillary and their density set at 5 * 10^4 cells per mL in supplemented assay DMEM. Infected H9c2 were dispensed into 384-well poly-lysine coated assay plates at 50uL per well using a Multidrop Combi dispenser. After seeding them, the plates were incubated at 37C, 5% CO2 for 72h. Cultures were then fixed and stained by addition of 50 uL of a solution containing 8% formaldehyde and 4 uM DRAQ5 DNA dye (BioStatus, UK) per well. […] Five images were collected per well for reliable statistical analysis. Automated image analysis was performed with a script developed on Acapella High Content Imaging and Analysis Software (PerkinElmer). Output: number of amastigotes per cell as infection level measurement. The format is functional, organism-based, Rattus norvegicus. As to conditions: H9c2, 4 h.

The subject of a further series is NIH3T3. The series is described as follows: GSK_TCAKS: pIC50 NIH 3T3 cell line viability assay using luminiscence. Tissue culture surface treated assay plates (1536-well) were used. […] The 100% cells survival control was determined exposing the host-cells to a 0.5% DMSO concentration, whereas the 100% toxicity control was achieved by seeding the cells in presence of Amphotericin B at 50uM. Plates were incubated for four days at 37C, 5% CO2. The assay readout was developed by addition of 5uL of CellTiter-Glo Reagent following the manufacturer's instructions. Luminiscence was measured using a ViewLux. The format is functional, cell-based. Particulars: Mus musculus, NIH3T3, 96 h.

The results in this text go back to ChEMBL document CHEMBL3430912, “GSK Tres Cantos Anti-Kinetoplastid Screening (TCAKS) Data”.

Each structure is given as a SMILES string.

What is called IC50 is the concentration needed to halve the response being measured. For the compound `CC(=O)Nc1ccc(-c2noc(CC3CCCN(Cc4cccc(F)c4C)C3)n2)cc1` (stereo not given), the half-inhibitory concentration (IC50) in the series on Leishmania donovani [1] was 31.6 µM; in series [2], more than 100 µM; in the series with Trypanosoma cruzi [3], 2 µM; in the series with Leishmania donovani [4], 39.8 µM; in [6], 25.1 µM; with Trypanosoma cruzi [7], 31.6 µM. The half-maximal inhibitory concentration (IC50) with Leishmania donovani [8] is more than 50.1 µM; with Trypanosoma cruzi [9], 1 µM; in series [10], 20 µM; with Leishmania donovani [11], 12.6 µM; in the series with Trypanosoma cruzi [12], 1.26 µM; with NIH3T3, 25.1 µM. In series [5], this compound showed an IC50 at 48 h of more than 100 µM.

As for `CN1CCN(c2nc(-c3ccc(Cl)cc3)c3c(N)n(C)nc3n2)CC1`, the IC50 with Leishmania donovani [1] is 39.8 µM; in series [2], more than 100 µM; with Trypanosoma cruzi [3], 1 µM; in the series on Leishmania donovani [4], more than 50.1 µM; in series [6], 31.6 µM; with Trypanosoma cruzi [7], 25.1 µM. Also, the IC50 with Leishmania donovani [8] is 39.8 µM; in the series with Trypanosoma cruzi [9], 2 µM; in [10], 12.6 µM; in the series with Leishmania donovani [11] it was 31.6 µM; in the series with Trypanosoma cruzi [12] it was 0.794 µM; with NIH3T3 it was 25.1 µM. In series [5], this compound gave an IC50 at 48 h of 79.4 µM.

On to `O=C(CN(c1cccc(C(F)(F)F)c1)S(=O)(=O)c1ccc(Cl)cc1)NCc1ccc(F)c(F)c1`, for which the IC50 in the series on Leishmania donovani [1] was more than 50.1 µM; in [2], 0.158 µM; in the series with Trypanosoma cruzi [3], 0.794 µM; in the series with Leishmania donovani [4] it was more than 50.1 µM; in series [6] it was 25.1 µM; with Trypanosoma cruzi [7], more than 50.1 µM. For the same compound, the IC50 in the series on Leishmania donovani [8] was 20 µM; with Trypanosoma cruzi [9], 0.794 µM; in [10], 10 µM; in the series on Leishmania donovani [11], more than 50.1 µM; in the series with Trypanosoma cruzi [12], 0.501 µM; in the series on NIH3T3, 31.6 µM. In series [5], this compound showed an IC50 at 48 h of more than 100 µM.

Regarding `NC(=O)c1ccccc1Nc1nc(NC2CCCCC2)nc2[nH]ccc12`, the IC50 in the series on Leishmania donovani [1] is 12.6 µM; in [2], more than 100 µM; in the series with Trypanosoma cruzi [3], 1 µM; with Leishmania donovani [4], 20 µM; in [6] it was 10 µM; in the series on Trypanosoma cruzi [7] it was 25.1 µM. Also, the IC50 with Leishmania donovani [8] is 10 µM; with Trypanosoma cruzi [9], 1 µM; in series [10], 0.501 µM; with Leishmania donovani [11] it was 12.6 µM; with Trypanosoma cruzi [12] it was 1 µM; with NIH3T3, 25.1 µM. Inhibition in series [5] was half-maximal at 20 µM (IC50 at 48 h).

As for `CC1=C(C(=O)Nc2ccc(Cl)cc2)C(c2ccncc2)n2ncc(C(=O)Nc3ccccc3)c2N1` (stereo not given), the IC50 in the series with Leishmania donovani [1] is more than 50.1 µM; in [2] it was 0.126 µM; with Trypanosoma cruzi [3] it was 0.02 µM; in the series on Leishmania donovani [4], 0.126 µM; in series [6], more than 39.8 µM; with Trypanosoma cruzi [7] it was more than 50.1 µM. Moreover, the IC50 is 12.6 µM with Leishmania donovani [8]; 0.02 µM with Trypanosoma cruzi [9]; 3.16 µM in [10]; more than 50.1 µM in the series with Leishmania donovani [11]; 0.02 µM in the series with Trypanosoma cruzi [12]; 31.6 µM in the series on NIH3T3. In series [5], this compound had an IC50 at 48 h of 79.4 µM.
